Literature values, collected in patent publication US12251361B2, “Solutions for oral dosage” (LIQMEDS WORLDWIDE LIMITED, priority 2019, dated 2025).

For `CN(C)CCC=C1c2ccccc2CCc2ccccc21.Cl` [Amitriptyline HCl, 3-(10,11-dihydro-5H-dibenzo[a,d]cycloheptene-5-ylidene)-N,N-dimethyl-1-propanamine hydrochloride], the Solubility in water is given as “freely soluble”.
